Molecular target: T1, SARM1 (50-724) (Homo sapiens, UniProt Q6SZW1)
T1 sequence (Q6SZW1 50-724): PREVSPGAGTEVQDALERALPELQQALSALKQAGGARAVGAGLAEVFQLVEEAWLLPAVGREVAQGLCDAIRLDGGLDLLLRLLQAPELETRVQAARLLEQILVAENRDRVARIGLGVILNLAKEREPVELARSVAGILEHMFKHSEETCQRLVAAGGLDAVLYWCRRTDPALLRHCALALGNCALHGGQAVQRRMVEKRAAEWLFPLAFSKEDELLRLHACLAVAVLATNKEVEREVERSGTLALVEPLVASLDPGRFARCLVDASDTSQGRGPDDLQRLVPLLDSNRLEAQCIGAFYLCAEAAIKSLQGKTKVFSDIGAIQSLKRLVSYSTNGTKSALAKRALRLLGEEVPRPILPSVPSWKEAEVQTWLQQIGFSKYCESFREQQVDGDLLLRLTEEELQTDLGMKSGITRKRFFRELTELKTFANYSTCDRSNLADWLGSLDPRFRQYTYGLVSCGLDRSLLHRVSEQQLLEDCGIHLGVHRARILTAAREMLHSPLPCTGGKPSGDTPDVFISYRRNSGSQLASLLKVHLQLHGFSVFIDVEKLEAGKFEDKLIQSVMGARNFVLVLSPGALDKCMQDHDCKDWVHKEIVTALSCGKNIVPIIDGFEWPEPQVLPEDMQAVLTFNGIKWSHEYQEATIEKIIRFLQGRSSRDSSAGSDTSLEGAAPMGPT
Assay: biochemical
Procedure: An enzymatic assay was performed in a 384-well plate using Dulbecco's phosphate-buffered saline (PBS) as the reaction buffer. […] The reaction was initiated by adding a mixture of 200 μM nicotinamide mononucleotide (NMN) as activator and 100 μM NAD^+ as substrate. After 1 h of incubation at room temperature, the reaction was terminated with 10 times volume of 70% acetonitrile, then centrifuged at 3800 rpm for 10 min.

Structure (SMILES)	IC50
CC(Nc1ccc2ccc(=O)[nH]c2c1)c1nc(Cl)c(Cl)s1 (racemic) [Compound 231, 7-[1-(4,5-dichlorothiazol-2-yl)ethylamino]-1H-quinolin-2-one]	< 100 nM
CCCC(Nc1ccc2c(c1)C(=O)NCC2)c1cc(C)cc(F)c1 (racemic) [Example 125, 7-((1-(3-fluoro-5-methylphenyl)butyl)amino)-3,4-dihydroisoquinolin-1(2H)-one]	500 to 1000 nM
CCC(Nc1ccc2c(OC)n[nH]c(=O)c2c1)c1nc(Cl)c(Cl)s1 (racemic) [Compound 272, 7-((1-(4,5-dichlorothiazol-2-yl)propyl)amino)-4-methoxyphthalazin-1(2H)-one]	< 100 nM
COc1cc2cc(NS(=O)(=O)c3cccc(Cl)c3Cl)ccc2cn1 [Compound 89, 2,3-dichloro-N-(3-methoxyisoquinolin-6-yl)benzenesulfonamide]	100 to 500 nM
CC(Nc1cc(F)c2ncn(-c3nncs3)c(=O)c2c1)c1nc(Cl)c(Cl)s1 (racemic) [Example 369, 6-((1-(4,5-dichlorothiazol-2-yl)ethyl)amino)-8-fluoro-3-(1,3,4-thiadiazol-2-yl)quinazolin-4(3H)-one]	< 100 nM
Cc1nn(CC(N)=O)c(=O)c2cc(NC(C)c3c(Cl)ccc(F)c3Cl)ccc12 (racemic) [Compound 300, 2-(7-((1-(2,6-dichloro-3-fluorophenyl)ethyl)amino)-4-methyl-1-oxophthalazin-2(1H)-yl)acetamide]	< 100 nM
CN1C(=O)C(C)(C)c2ccc(NS(=O)(=O)c3cccc(Cl)c3Cl)cc21 [Compound 211, 2,3-dichloro-N-(1,3,3-trimethyl-2-oxoindolin-6-yl)benzenesulfonamide]	< 100 nM
CC1(C)CC(C#N)c2cc(NS(=O)(=O)c3cccc(Cl)c3Cl)ccc21 (racemic) [Compound 298, 2,3-dichloro-N-(3-cyano-1,1-dimethyl-2,3-dihydro-1H-inden-5-yl)benzenesulfonamide]	< 100 nM
CC(Nc1cc(F)c2ncn(-c3ccn[nH]3)c(=O)c2c1)c1nc(Cl)c(Cl)s1 (single isomer, unassigned) [Example 356]	< 100 nM
Clc1cccc(C(Nc2ccc3cccnc3c2)C2CCC2)c1Cl (centres unmarked) [Example 179, N-(cyclobutyl(2,3-dichlorophenyl)methyl)quinolin-7-amine]	100 to 500 nM
Cc1c2ccc(NC(C)c3nc(Cl)c(Cl)s3)cc2nn1C1CCOCC1 (racemic) [Compound 327, N-(1-(4,5-dichlorothiazol-2-yl)ethyl)-3-methyl-2-(tetrahydro-2H-pyran-4-yl)-2H-indazol-6-amine]	< 100 nM
CC(Nc1ccc2cc[nH]c(=O)c2c1)c1ccnc(Cl)c1Cl (racemic) [Example 131, 7-((1-(2,3-dichloropyridin-4-yl)ethyl)amino)isoquinolin-1(2H)-one]	100 to 500 nM
O=C1NCCc2ccc(NS(=O)(=O)N3CCCC4CCCCC43)cc21 (mixture of isomers) [Example 170, N-(1-oxo-1,2,3,4-tetrahydroisoquinolin-7-yl)octahydroquinoline-1(2H)-sulfonamide]	> 1000 nM
CC(Nc1ccc2ccn(C)c(=O)c2c1)c1ncc(Cl)s1 (racemic) [Compound 182, 7-((1-(5-chlorothiazol-2-yl)ethyl)amino)-2-methylisoquinolin-1(2H)-one]	> 1000 nM
N#Cc1c[nH]c(=O)c2cc(NS(=O)(=O)c3cccc(Cl)c3Cl)ccc12 [Compound 63, 2,3-dichloro-N-(4-cyano-1-oxo-1,2-dihydroisoquinolin-7-yl)benzenesulfonamide]	100 to 500 nM
CC(Nc1ccc2cc[nH]c(=O)c2c1)c1cc(F)cc(F)c1Cl (racemic) [Example 137, 7-((1-(2-chloro-3,5-difluorophenyl)ethyl)amino)isoquinolin-1(2H)-one]	< 100 nM
Cc1c(F)cccc1S(=O)(=O)Nc1ccc2cc[nH]c(=O)c2c1 [Compound 15, 3-fluoro-2-methyl-N-(1-oxo-1,2-dihydroisoquinolin-7-yl)benzenesulfonamide]	< 100 nM

Reference: US20250320184A1 (SIRONAX LTD., priority 2022, published 2025)
